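Tested at 5 concentrations; 48 h exposure; 96-well plates; endpoints linearly interpolated, else capped at highest concentration. Here, GI50 denotes the concentration required for 50% inhibition of growth.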 The source made the active and inactive calls. No stated cut-off is given here; in the data, active = GI50 up to about 1.1 µM and inactive = higher.
What was measured:
Test in all cases: NCI anticancer screen, dose series, 48 h
[1] = tested on: ACHN
[2] = tested on: TK-10
[3] = tested on: CAKI-1
[4] = tested on: K562
[5] = tested on: SF-539
[6] = tested on: SNB-75
[7] = tested on: NCI-H226
[8] = tested on: OVCAR-4
[9] = tested on: M14
[10] = tested on: OVCAR-3
[11] = tested on: SNB-19
[12] = tested on: LOX IMVI
[13] = tested on: SK-MEL-28
[14] = tested on: UACC-257
[15] = tested on: HL-60
[16] = tested on: SK-OV-3
[17] = tested on: RXF 393
[18] = tested on: SR
[19] = tested on: RPMI-8226
[20] = tested on: PC-3

| Compound | GI50 [1] | GI50 [2] | GI50 [3] | GI50 [4] | GI50 [5] | GI50 [6] | GI50 [7] | GI50 [8] | GI50 [9] | GI50 [10] | GI50 [11] | GI50 [12] | GI50 [13] | GI50 [14] | GI50 [15] | GI50 [16] | GI50 [17] | GI50 [18] | GI50 [19] | GI50 [20] |
| --- | --- | --- | --- | --- | --- | --- | --- | --- | --- | --- | --- | --- | --- | --- | --- | --- | --- | --- | --- | --- |
| Cc1cc(O)c(-c2cc(O)c(C)cc2O)cc1O | 3.94 µM (inactive) | 5.93 µM (inactive) | 6.07 µM (inactive) | 1.86 µM (inactive) | 3.02 µM (inactive) | 14.9 µM (inactive) | 18.7 µM (inactive) | 5.5 µM (inactive) | 7.67 µM (inactive) | 2.14 µM (inactive) | 18.9 µM (inactive) | 5.66 µM (inactive) | 9.23 µM (inactive) | 7 µM (inactive) | 1.71 µM (inactive) | 16.8 µM (inactive) | 2.38 µM (inactive) | 0.977 µM (active) | 1.66 µM (inactive) | 11.6 µM (inactive) |
| CCOC(=O)c1c(CN2CCNCC2)nc2ccc(Cl)cc2c1-c1ccccc1 | 5.45 µM (inactive) | 5.07 µM (inactive) | 2.47 µM (inactive) | 2.14 µM (inactive) | 2.56 µM (inactive) | 2.37 µM (inactive) | 12.6 µM (inactive) | 3.72 µM (inactive) | 1.81 µM (inactive) | 6.95 µM (inactive) | 12.8 µM (inactive) | 1.85 µM (inactive) | 3.83 µM (inactive) | 1.81 µM (inactive) | 1.98 µM (inactive) | 6.93 µM (inactive) | 2.58 µM (inactive) | 1.78 µM (inactive) | 2.19 µM (inactive) | 2.54 µM (inactive) |
| NCCCc1ccc2oc3ccccc3c2c1 | 17.5 µM (inactive) | 16.7 µM (inactive) | 16.2 µM (inactive) | 24.2 µM (inactive) | 21.2 µM (inactive) | 16.8 µM (inactive) | 19.1 µM (inactive) | 19.9 µM (inactive) | 15.8 µM (inactive) | 17.2 µM (inactive) | 16 µM (inactive) | 18.5 µM (inactive) | 17.8 µM (inactive) | 17.9 µM (inactive) | 11.4 µM (inactive) | 17.1 µM (inactive) | 17.9 µM (inactive) | 16.2 µM (inactive) | 26.4 µM (inactive) | 18.7 µM (inactive) |
| CC(C)(C)c1cc(OCc2nnc3sc(S)nn23)c(Cl)cc1OCc1nnc2sc(S)nn12 | 26.1 µM (inactive) | 35 µM (inactive) | 33.6 µM (inactive) | 32.6 µM (inactive) | 35.7 µM (inactive) | 38.8 µM (inactive) | > 100 µM (inactive) | 32.5 µM (inactive) | 25.9 µM (inactive) | 25.2 µM (inactive) | 35.5 µM (inactive) | 18.4 µM (inactive) | 22.3 µM (inactive) | 27.7 µM (inactive) | 22.5 µM (inactive) | 45.4 µM (inactive) | 22.4 µM (inactive) | 18.3 µM (inactive) | 30.7 µM (inactive) | 50.9 µM (inactive) |
| CCCCNS(=O)(=O)c1n[nH]c(=O)[nH]c1=O | > 100 µM (inactive) | – | > 100 µM (inactive) | > 100 µM (inactive) | > 100 µM (inactive) | 82.6 µM (inactive) | > 100 µM (inactive) | > 100 µM (inactive) | > 100 µM (inactive) | > 100 µM (inactive) | > 100 µM (inactive) | > 100 µM (inactive) | > 100 µM (inactive) | – | > 100 µM (inactive) | 17.6 µM (inactive) | > 100 µM (inactive) | > 100 µM (inactive) | > 100 µM (inactive) | > 100 µM (inactive) |
| CC1OC(n2cc(F)c(=O)[nH]c2=O)C(O[Si](C)(C)C(C)(C)C)C1O[Si](C)(C)C(C)(C)C (stereo not given) | 14 µM (inactive) | 10.7 µM (inactive) | 13.6 µM (inactive) | 15.4 µM (inactive) | 12.6 µM (inactive) | 15.5 µM (inactive) | 16.2 µM (inactive) | 6.41 µM (inactive) | 20.2 µM (inactive) | 15 µM (inactive) | 14.7 µM (inactive) | 16.2 µM (inactive) | – | 17.7 µM (inactive) | 5.93 µM (inactive) | 14.7 µM (inactive) | 14 µM (inactive) | 6.03 µM (inactive) | 11.6 µM (inactive) | 11 µM (inactive) |
| CCOC(=O)NC(Nc1ccc(S(=O)(=O)Nc2nc(C)cc(C)n2)cc1)(C(=O)OCC)C(F)(F)F (stereo not given) | > 100 µM (inactive) | 72.9 µM (inactive) | > 100 µM (inactive) | > 100 µM (inactive) | > 100 µM (inactive) | > 100 µM (inactive) | > 100 µM (inactive) | > 100 µM (inactive) | > 100 µM (inactive) | > 100 µM (inactive) | > 100 µM (inactive) | > 100 µM (inactive) | > 100 µM (inactive) | – | > 100 µM (inactive) | > 100 µM (inactive) | > 100 µM (inactive) | 5.33 µM (inactive) | > 100 µM (inactive) | > 100 µM (inactive) |
| Cc1ccc(C2=CC(=O)/C(=C\C(=O)c3ccc(Br)cc3)O2)c(C)c1 | 4.57 µM (inactive) | 3.83 µM (inactive) | 3.04 µM (inactive) | 3.4 µM (inactive) | 31.4 µM (inactive) | 7.85 µM (inactive) | 10.9 µM (inactive) | 9.42 µM (inactive) | 11.6 µM (inactive) | 5.3 µM (inactive) | 18.7 µM (inactive) | 3.78 µM (inactive) | 17.2 µM (inactive) | 16.9 µM (inactive) | 3.92 µM (inactive) | 7.74 µM (inactive) | 4.58 µM (inactive) | 2.36 µM (inactive) | 2.87 µM (inactive) | 5.35 µM (inactive) |
| CCCCNc1nc(NC2OCC(OC(C)=O)C(OC(C)=O)C2OC(C)=O)c(N=O)c(=O)n1C (stereo not given) | > 10 µM (inactive) | > 10 µM (inactive) | > 10 µM (inactive) | – | > 10 µM (inactive) | > 10 µM (inactive) | > 10 µM (inactive) | > 10 µM (inactive) | > 10 µM (inactive) | > 10 µM (inactive) | > 10 µM (inactive) | > 10 µM (inactive) | > 10 µM (inactive) | > 10 µM (inactive) | > 10 µM (inactive) | > 10 µM (inactive) | > 10 µM (inactive) | > 10 µM (inactive) | > 10 µM (inactive) | > 10 µM (inactive) |
| N=C(N)SCCON1C(=O)c2ccccc2C1=O | > 100 µM (inactive) | > 100 µM (inactive) | > 100 µM (inactive) | > 100 µM (inactive) | > 100 µM (inactive) | > 100 µM (inactive) | > 100 µM (inactive) | > 100 µM (inactive) | > 100 µM (inactive) | > 100 µM (inactive) | > 100 µM (inactive) | > 100 µM (inactive) | > 100 µM (inactive) | > 100 µM (inactive) | > 100 µM (inactive) | > 100 µM (inactive) | > 100 µM (inactive) | > 100 µM (inactive) | > 100 µM (inactive) | > 100 µM (inactive) |
| O=[N+]([O-])c1cc(C(F)(F)F)cc2n[se]nc12 | 2.65 µM (inactive) | 4.5 µM (inactive) | 4.6 µM (inactive) | 0.822 µM (active) | 3.89 µM (inactive) | 7.64 µM (inactive) | 20.6 µM (inactive) | 1.97 µM (inactive) | 1.71 µM (inactive) | 1.67 µM (inactive) | 15.5 µM (inactive) | 5.53 µM (inactive) | 2.22 µM (inactive) | 2.16 µM (inactive) | 0.429 µM (active) | 13.6 µM (inactive) | 2.3 µM (inactive) | 1.36 µM (inactive) | 1.21 µM (inactive) | 4 µM (inactive) |
| Cc1ccc2nc(Cl)c(/C=N/N3C(=O)/C(=C/Cc4ccco4)N=C3c3ccccc3)cc2c1 | 72.3 µM (inactive) | 18.4 µM (inactive) | 5.04 µM (inactive) | 38.1 µM (inactive) | 43.6 µM (inactive) | > 47.4 µM (inactive) | > 54.6 µM (inactive) | 51.6 µM (inactive) | 27.7 µM (inactive) | 71.1 µM (inactive) | 35.8 µM (inactive) | 27.4 µM (inactive) | 58.7 µM (inactive) | 32.7 µM (inactive) | 34.1 µM (inactive) | > 100 µM (inactive) | 2.54 µM (inactive) | > 69.3 µM (inactive) | 27 µM (inactive) | 61.4 µM (inactive) |
| C[C@@]12C[C@@H](c3ccccc3O1)N1CCSC1=N2 | > 100 µM (inactive) | > 100 µM (inactive) | > 100 µM (inactive) | > 100 µM (inactive) | > 100 µM (inactive) | > 100 µM (inactive) | > 100 µM (inactive) | > 100 µM (inactive) | > 100 µM (inactive) | > 100 µM (inactive) | > 100 µM (inactive) | > 100 µM (inactive) | > 100 µM (inactive) | > 100 µM (inactive) | > 100 µM (inactive) | > 100 µM (inactive) | > 100 µM (inactive) | > 100 µM (inactive) | > 100 µM (inactive) | > 100 µM (inactive) |
| c1ccc2c(c1)OC(N1CCCC1)c1cnc(N3CCCC3)nc1-2 (stereo not given) | 40.6 µM (inactive) | 49.2 µM (inactive) | 20.9 µM (inactive) | 34.3 µM (inactive) | 68.1 µM (inactive) | 15.2 µM (inactive) | 54.2 µM (inactive) | 36.2 µM (inactive) | 50.9 µM (inactive) | 22.9 µM (inactive) | 92.5 µM (inactive) | 45.9 µM (inactive) | 79.6 µM (inactive) | 20.6 µM (inactive) | 27.4 µM (inactive) | 44.1 µM (inactive) | 20.3 µM (inactive) | 29.7 µM (inactive) | 20.7 µM (inactive) | 28.7 µM (inactive) |
